From article PMC9962200, “Selectively Modified Lactose and N-Acetyllactosamine Analogs at Three Key Positions to Afford Effective Galectin-3 Ligands” (International Journal of Molecular Sciences, 2023)
pKd: −log10 of the molar value. Structures can show the parent of a compound that is named as a salt.

Target: T1, human galectin-3 (hGal-3) (Homo sapiens, UniProt P17931)
T1 construct: P.K. and P.B. prepared recombinant full-length hGal-3 and contributed to the ITC experiments; made in house
Experiment: Isothermal titration calorimetry (ITC) of sugar analogs with recombinant hGal-3
Assay type: binding
Details: 27 °C; for −ΔH: binding enthalpy, lectin monomer units, errors 1–4%; for −ΔG: calculated from ΔG = -RT ln(Ka), errors less than 2%; for −TΔS: calculated from ΔG = ΔH − TΔS; for −TΔS / pKd: errors 1–7%; for n Sites/ Monomer: number of binding sites per hGal-3 monomer, errors less than 4%; for pKd / Ka: pH 7.2, 20 mM PBS buffer; for pKd: recombinant hGal-3, Kd calculated from 1/Ka; for Ka: recombinant hGal-3, errors 1–7%; for Relative Potencies: relative to methyl lactoside 1 = 1.0
Description: The Kd value of PNP LacNAc (20) was similar to that of its propargyl Lac analog 11.
ITC experiments were performed using a VP-ITC instrument from GE. Injections of 4 µL of carbohydrate solutions were added from a computer-controlled micro syringe at an interval of 4 min into the sample solution of hGal-3 (cell volume = 1.43 mL) with stirring at 350 rpm. Control experiments were performed by injecting the carbohydrates into a cell containing only buffer. The concentration range of hGal-3 was 90–130 µΜ, and the concentrations of the carbohydrates were 15–25 mM based on the dry weight molecular weights of the latter molecules. The concentration of hGal-3 was based on its molecular mass. Titrations were done at 27 °C (pH 7.2) using 20 mM PBS buffer. The experimental data were fitted to a theoretical titration curve using software supplied by the vendor, with ΔH (binding enthalpy in kcal mol^−1) (lectin monomer units), Ka (association constant) and n (number of binding sites per monomer), as adjustable parameters. The Kd (dissociation constant) was calculated from 1/Ka. The quantity c = Ka Mt (0), where Mt (0) is the initial macromolecule concentration, is of importance in titration microcalorimetry. All experiments were performed with c values 1 < c < 500. The instrument was calibrated using the calibration kit containing ribonuclease A (RNase A) and cytidine 2′-monophosphate (2′-CMP) supplied by the manufacturer. Thermodynamic parameters were calculated from the Gibbs Free Energy equation, ΔG = ΔH − TΔS = -RT ln(Ka), where ΔG, ΔH, and ΔS are the changes in free energy, enthalpy, and entropy of binding, respectively. T is the absolute temperature and R = 1.98 cal mol^−11 K^−1.

T1 sequence (P17931 whole entry): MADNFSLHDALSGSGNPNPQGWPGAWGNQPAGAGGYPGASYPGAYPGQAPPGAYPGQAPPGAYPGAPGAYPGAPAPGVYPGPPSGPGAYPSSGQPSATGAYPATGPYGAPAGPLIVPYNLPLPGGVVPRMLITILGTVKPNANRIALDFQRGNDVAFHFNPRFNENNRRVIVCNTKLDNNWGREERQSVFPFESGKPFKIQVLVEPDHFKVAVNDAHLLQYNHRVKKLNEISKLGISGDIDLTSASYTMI

SMILES	−ΔH	−ΔG	−TΔS	n Sites/ Monomer	pKd	Ka	Relative Potencies
CO[C@@H]1O[C@H](CO)[C@@H](O[C@@H]2O[C@H](CO)[C@H](O)[C@H](O)[C@H]2O)[C@H](O)[C@H]1O [Compound 1, methyl 4-O-β-D-galactopyranosyl-β-D-glucopyranoside, reference compound]	3.9 kcal/mol	5.5 kcal/mol	-1.6 kcal/mol	1.08	4.04	1.1 10^4 M^−1	1.0
C#CCO[C@@H]1O[C@H](CO)[C@@H](O[C@@H]2O[C@H](CO)[C@H](O)[C@H](O)[C@H]2O)[C@H](O)[C@H]1O [Compound 4, Propargyl (β-D-Galactopyranosyl)-(1→4)-β-D-Glucopyranoside]	5.7 kcal/mol	5.9 kcal/mol	-0.2 kcal/mol	0.98	4.32	2.1 10^4 M^−1	1.9
C#CCO[C@@H]1O[C@H](CO)[C@@H](O[C@@H]2O[C@H](CO)[C@H](O)[C@H](O)[C@H]2O)[C@H](O)[C@H]1NC(C)=O [Compound 27, Propargyl (β-D-Galactopyranosyl)-(1→4)-2-Acetamido-2-Deoxy-β-D-Glucopyranoside]	4.2 kcal/mol	6.0 kcal/mol	-1.8 kcal/mol	1.10	4.42	2.6 10^4 M^−1	2.4
C#CCO[C@@H]1O[C@H](CO)[C@@H](O[C@@H]2O[C@H](CO)[C@H](O)[C@H](OS(=O)(=O)O)[C@H]2O)[C@H](O)[C@H]1NC(C)=O [Compound 30, Propargyl (3-O-Sulfo-β-D-Galactopyranosyl)-(1→4)-2-Acetamido-2-Deoxy-β-D-Glucopyranoside Sodium Salt]	5.2 kcal/mol	6.6 kcal/mol	-1.4 kcal/mol	1.07	4.83	6.8 10^4 M^−1	6.2
C#CCO[C@@H]1O[C@H](CO)[C@@H](O[C@@H]2O[C@H](CO)[C@H](O)[C@H](OCC(=O)O)[C@H]2O)[C@H](O)[C@H]1NC(C)=O [Compound 32, Propargyl (3-O-Carboxymethyl-β-D-Galactopyranosyl)-(1→4)-2-Acetamido-2-Deoxy-β-D-Glucopyranoside Sodium Salt]	4.3 kcal/mol	5.8 kcal/mol	–	1.10	4.28	1.9 10^4 M^−1	1.7
C#CCOC1OC(CO)C(OC2OC(CO)C(O)C(OC3(C(=O)O)CC(O)C(NC(C)=O)C(C(O)C(O)CO)O3)C2O)C(O)C1NC(C)=O (stereo not drawn) [Compound 33]	5.9 kcal/mol	5.7 kcal/mol	0.2 kcal/mol	1.04	4.20	1.6 10^4 M^−1	1.5

Further lines, results first:

−ΔH	−ΔG	−TΔS	n Sites/ Monomer	pKd	Ka	Relative Potencies	SMILES
3.7 kcal/mol	5.9 kcal/mol	-2.2 kcal/mol	1.10	4.30	–	1.8	O=[N+]([O-])c1ccc(O[C@@H]2O[C@H](CO)[C@@H](O[C@@H]3O[C@H](CO)[C@H](O)[C@H](O)[C@H]3O)[C@H](O)[C@H]2O)cc1 [Compound 6, 4-Nitrophenyl (β-D-Galactopyranosyl)-(1→4)-β-D-Glucopyranoside]
3.8 kcal/mol	6.1 kcal/mol	-2.3 kcal/mol	1.08	4.43	2.7 10^4 M^−1	2.5	C#CCO[C@@H]1O[C@H](CO)[C@@H](O[C@@H]2O[C@H](CO)[C@H](O)[C@H](OS(=O)(=O)O)[C@H]2O)[C@H](O)[C@H]1O [Compound 11, Propargyl (3-O-Sulfo-β-D-Galactopyranosyl)-(1→4)-β-D-Glucopyranoside Sodium Salt]
6.0 kcal/mol	6.4 kcal/mol	-0.4 kcal/mol	0.97	4.69	4.9 10^4 M^−1	4.5	O=[N+]([O-])c1ccc(O[C@@H]2O[C@H](CO)[C@@H](O[C@@H]3O[C@H](CO)[C@H](O)[C@H](OS(=O)(=O)O)[C@H]3O)[C@H](O)[C@H]2O)cc1 [Compound 12, 4-Nitrophenyl (3-O-Sulfo-β-D-Galactopyranosyl)-(1→4)-β-D-Glucopyranoside Sodium Salt]
7.3 kcal/mol	6.1 kcal/mol	1.2 kcal/mol	1.05	4.48	3.0 10^4 M^−1	2.7	CC(=O)N[C@H]1[C@H](Oc2ccc([N+](=O)[O-])cc2)O[C@H](CO)[C@@H](O[C@@H]2O[C@H](CO)[C@H](O)[C@H](O)[C@H]2O)[C@@H]1O [Compound 20, 4-Nitrophenyl (β-D-Galactopyranosyl)-(1→4)-2-Acetamido-2-Deoxy-β-D-Glucopyranoside]
3.3 kcal/mol	6.3 kcal/mol	-3.0 kcal/mol	0.96	4.65	4.5 10^4 M^−1	4.1	CC(=O)N[C@H]1[C@H](Oc2ccc([N+](=O)[O-])cc2)O[C@H](CO)[C@@H](O[C@@H]2O[C@H](CO)[C@H](O)[C@H](OS(=O)(=O)O)[C@H]2O)[C@@H]1O [Compound 23, 4-Nitrophenyl (3-O-Sulfo-β-D-Galactopyranosyl)-(1→4)-2-Acetamido-2-Deoxy-β-D-Glucopyranoside Sodium Salt]
